Experimental data from patent publication US20250262241A1, “METHODS TO IMPROVE STABILITY OF VIRUS TRANSDUCTION OF y8 T CELLS AND APPLICATIONS THEREOF” (UNICET BIOTECH CO. LLC., priority 2021, published 2025).
Read-outs that look alike come from different tables or passages of the source.

Key:
γδ2 T cells [1] = test: CAR (B7H3) related lentivirus transduction of γδ2 T cells with small inhibitors: transduction rate; type: cell-based, human
Procedure: VSV-G pseudotyped lentiviral vectors were applied in this method. 1×10^7 293T cells were plated into a poly-D-lysine coated 100 mm dish. Next day the cells were transfected with 6 μg of pCDH-EF1-MCS-T2A-copGFP plasmid (Addgene, Plasmid #72263) or pCDH-EF1-CAR-T2A-copGFP plasmid modified from pCDH-EF1-MCS-T2A-copGFP, 4 μg of pspAx2 (Addgene, Plasmid #12260), 2 μg of pCMV-VSV-G (Addgene, Plasmid #8454) using 30 ug PEI transfection regents. After 8 hours of transfection, the cell culture medium was changed. The supernatant were collected 48 hours and 72 hours later. Concentrated the virus with Lenti-X™ Concentrator (Takara) and monitored the virus titers by transduction of 293T cells and stored the concentrated virus in −80° C. until further use.
(§1) For lentivirus transduction, 1×10^CFU lentivirus diluted in 200 ul PBS were added in a 24-well plate which were pre-coated with RetroNectin reagent (Takara) and centrifugated by 2,000 g for 2 hours at 32° C. After centrifugation, removed the supernatant and washed the plate with PBS three times slightly.
For the virus transduction of γδ2 T cells, seeded 1×10^PBMCs which were in vitro cultured after 48 hours in the γδ2 T cell culture medium mentioned above (Gibco serum free medium with rhIL-2 and ZOL). Added or not small inhibitors and mixed well and concentrated the cells by 800 g for 10 mins at 32° C. The plates were incubated at 37° C., 5% CO2. Discarded the small inhibitors regent by changing the cell culture medium 24 hours later.
Calculate the cell number by an automated cell counter and the transduction rate (GFP positive rate) was analyzed by flow cytometry every 2 to 3 days. The transduction rate was monitored in the gate of γδ2 or γδ1 T cells.

γδ2 T cells [2] = type: cell-based, human
Procedure: (§2) The plates were incubated at 37° C., 5% CO2.

γδ1 T cells = test: CAR related lentivirus transduction of γδ1 T cells with small inhibitors; type: cell-based, human; conditions: control finally around 2%
Procedure: as §1, §2
To test the application of these small molecule on improving the transduction rate of δδ1 T cells. We evaluated the transduction rate of δδ1 T cells with/without different dosage of small molecules.

[3] = target: ubiquitin-specific protease USP7 (Homo sapiens, UniProt Q93009); conditions: cited from earlier work
Chain of ubiquitin-specific protease USP7 (Q93009 whole entry): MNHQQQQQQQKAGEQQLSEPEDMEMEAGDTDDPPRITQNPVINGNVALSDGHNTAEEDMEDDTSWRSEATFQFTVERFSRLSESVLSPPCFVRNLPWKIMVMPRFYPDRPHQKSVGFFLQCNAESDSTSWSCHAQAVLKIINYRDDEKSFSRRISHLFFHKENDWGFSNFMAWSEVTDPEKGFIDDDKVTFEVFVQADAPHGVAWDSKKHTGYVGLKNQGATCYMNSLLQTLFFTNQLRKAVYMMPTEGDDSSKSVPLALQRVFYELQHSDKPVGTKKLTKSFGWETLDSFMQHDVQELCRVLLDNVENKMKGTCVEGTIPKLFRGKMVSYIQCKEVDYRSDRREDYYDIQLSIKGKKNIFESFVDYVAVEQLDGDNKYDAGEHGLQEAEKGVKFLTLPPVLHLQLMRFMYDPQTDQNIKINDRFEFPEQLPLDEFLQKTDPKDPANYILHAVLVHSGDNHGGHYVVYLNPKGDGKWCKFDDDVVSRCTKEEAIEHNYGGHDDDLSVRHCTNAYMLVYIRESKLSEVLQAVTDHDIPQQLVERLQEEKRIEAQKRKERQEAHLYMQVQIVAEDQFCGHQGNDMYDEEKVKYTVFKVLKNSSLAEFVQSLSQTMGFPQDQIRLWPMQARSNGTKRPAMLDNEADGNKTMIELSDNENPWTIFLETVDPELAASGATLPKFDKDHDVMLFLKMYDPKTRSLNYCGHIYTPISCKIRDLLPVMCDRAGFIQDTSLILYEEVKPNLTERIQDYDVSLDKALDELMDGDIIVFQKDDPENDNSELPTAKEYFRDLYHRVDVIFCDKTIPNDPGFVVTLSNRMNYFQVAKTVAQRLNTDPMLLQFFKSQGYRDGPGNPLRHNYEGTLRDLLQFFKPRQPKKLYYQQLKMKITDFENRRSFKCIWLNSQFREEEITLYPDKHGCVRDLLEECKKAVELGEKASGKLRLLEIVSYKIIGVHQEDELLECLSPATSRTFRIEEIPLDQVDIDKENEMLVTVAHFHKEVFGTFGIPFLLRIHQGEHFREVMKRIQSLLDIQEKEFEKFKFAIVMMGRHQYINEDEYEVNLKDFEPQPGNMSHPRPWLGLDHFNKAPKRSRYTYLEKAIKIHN

[4] = target: T1, ubiquitin-specific protease USP21 (Homo sapiens, UniProt Q9UK80); conditions: cited from earlier work
T1 sequence (Q9UK80 1-565): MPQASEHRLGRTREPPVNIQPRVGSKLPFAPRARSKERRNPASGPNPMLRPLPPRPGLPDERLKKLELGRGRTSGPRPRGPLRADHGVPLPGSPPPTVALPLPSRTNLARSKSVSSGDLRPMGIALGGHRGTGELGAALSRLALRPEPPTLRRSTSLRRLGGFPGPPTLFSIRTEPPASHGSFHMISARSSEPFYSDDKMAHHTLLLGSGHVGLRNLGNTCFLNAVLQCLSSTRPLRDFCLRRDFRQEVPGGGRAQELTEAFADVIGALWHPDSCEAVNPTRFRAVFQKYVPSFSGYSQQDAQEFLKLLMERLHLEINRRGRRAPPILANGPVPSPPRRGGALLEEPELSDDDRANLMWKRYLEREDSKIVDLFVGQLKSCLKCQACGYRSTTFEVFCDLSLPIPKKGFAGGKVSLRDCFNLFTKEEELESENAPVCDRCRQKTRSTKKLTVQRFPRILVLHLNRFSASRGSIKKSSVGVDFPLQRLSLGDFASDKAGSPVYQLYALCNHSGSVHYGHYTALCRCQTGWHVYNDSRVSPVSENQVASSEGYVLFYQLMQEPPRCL

For `Nc1ncc2[nH]cnc2n1` [2-Aminopurine], the “effect on transduction rate” value (γδ2 T cells [1]; 5 uM to 500 uM) was “enhance the transduction rate in a dosage dependent manner”, the transduction rate (γδ2 T cells [1]; 500 uM, control around 5% at Day10) was “around 60%” and the cell growth (γδ2 T cells [2]; 5 uM to 500 uM) was “did not impair the cell growth”. For the same compound, the “effect on transduction rate of γδ1 T cells” value (“effect … of γδ1 T cells” for short) (γδ1 T cells; 500 uM) was “could improve the transduction rate”.

In the case of `COc1cc(O)c2c(c1)/C=C/C[C@H](O)[C@H](O)C(=O)/C=C\C[C@H](C)OC2=O` [(5Z)-7-Oxozeaenol], the transduction rate (γδ2 T cells [1]; 0.6 uM, control around 5% at Day10) is reported as “higher than 20%”, the transduction rate (γδ2 T cells [1]; 6 uM, control around 5% at Day10) is reported as “higher than 30%” and the “effect on transduction rate” value (γδ2 T cells [1]; 60 uM compared with 6 uM) is reported as “did not perform better to improve the transduction rate”. For the same compound, the cell growth (γδ2 T cells [2]; 0.6 uM and 6 uM) was “did not influence the cell growth”, the cell growth (γδ2 T cells [2]; 60 uM compared with 6 uM) was “impaired the cell growth” and the “effect … of γδ1 T cells” value (γδ1 T cells; 6 uM) was “could improve the transduction rate”.

With `Cc1ccc(S(=O)(=O)/C=C/C#N)cc1` [BAY11-7082] the “effect on transduction rate” value (γδ2 T cells [1]; 0.5 uM to 50 uM) was “enhance the transduction rate in a dosage dependent manner”, the transduction rate (γδ2 T cells [1]; 50 uM, control around 5% at Day10) was “higher than 70%” and the cell growth (γδ2 T cells [2]; 0.5 uM to 50 uM, higher dosage, less total cell number) was “impaired the cell growth in a dosage dependent manner”. For the same compound, the “effect … of γδ1 T cells” value (γδ1 T cells; 50 uM) was “could improve the transduction rate”, the IC50 [3] was 190 nM and the IC50 [4] was 960 nM.

For `CC(C)C[C@H](NC(=O)[C@H](Cc1ccccc1)NC(=O)c1cnccn1)B(O)O` [Bortezomib], the transduction rate (γδ2 T cells [1]; 0.04 uM, control around 5% at Day10) was ~50%, the transduction rate (γδ2 T cells [1]; 0.4 uM and 4 uM, control around 5% at Day10) was “higher than 20%” and the cell growth (γδ2 T cells [2]; 0.04 uM, 0.4 uM, 4 uM) was “impaired the cell growth in a dosage dependent manner”. For the same compound, the cell number (γδ2 T cells [2]; 0.4 uM and 4 uM) was “significantly cell number loss” and the “effect … of γδ1 T cells” value (γδ1 T cells; 0.04 μM, 0.4 μM or 4 μM) was “All the molecules except for Bortezomib could improve the transduction rate”.

With `COc1cc(/C=C/C(=O)CC(=O)/C=C/c2ccc(O)c(OC)c2)ccc1O` [Curcumin] the transduction rate (γδ2 T cells [1]; 10 uM, day 10, control around 5%) was “higher than 20%”, the “effect on transduction rate” value (γδ2 T cells [1]; 100 uM (highest dosage)) was “slightly enhance the transduction rate” and the “effect on transduction rate” value (γδ2 T cells [1]; luM (low dosage)) was “did not enhance the transduction rate”. The cell growth (γδ2 T cells [2]; 10 uM) was “inhibited the cell growth slightly”, the cell growth (γδ2 T cells [2]; 100 uM) was “significantly impaired the cell growth” and the cell growth (γδ2 T cells [2]; luM (low dosage)) was “enhanced the cell growth”. The “effect … of γδ1 T cells” value (γδ1 T cells; 10 uM) was “could improve the transduction rate”.

In the case of `C[C@@H]1C[C@H]2[C@@H]3CCC4=CC(=O)C=C[C@]4(C)[C@@]3(F)[C@@H](O)C[C@]2(C)[C@@]1(O)C(=O)CO` [Dexamethasone], the transduction rate (γδ2 T cells [1]; 6.4 uM, control around 5% at Day10) is reported as “higher than 25%” and the cell growth (γδ2 T cells [2]; 0.064 uM to 6.4 uM) is reported as “did not impair the cell growth”.

For `O=C(Nc1nc2ccccc2n1CCN1CCOCC1)c1cccc([N+](=O)[O-])c1` [IRAK1/4 Inhibitor I], the “effect on transduction rate” value (γδ2 T cells [1]; 0.03 uM to 3 uM) was “enhance the transduction rate in a dosage dependent manner”, the transduction rate (γδ2 T cells [1]; 3 uM, control around 5% at Day10) was “higher than 35%” and the cell growth (γδ2 T cells [2]; 0.03 uM to 3 uM) was “did not impair the cell growth”. For the same compound, the “effect … of γδ1 T cells” value (γδ1 T cells; 0.3 uM) was “could improve the transduction rate”.
